Measurements: patent US9624209B2, “Substituted phenylureas and phenylamides as vanilloid receptor ligands” (Gruenenthal GmbH, priority 2009, dated 2017)
Each block holds one molecule with its values, some of them ahead of it.

Molecular target: T1, vanilloid receptor 1 (VR1/TRPV1 receptor) (Homo sapiens, UniProt Q8NER1)
T1 construct: expressed in transfected cells; host or cells: CHO K1 cells (ECACC), stably transfected
Experiment: VR1/TRPV1 receptor affinity, capsaicin stimulus (human)
Type: cell-based, human being
Set-up: key to (f) Ki (human being) [nM] Cap: result in words: AG=agonist; pAG=partial agonist; NE=no effect
Details: for (f) Ki (human being) [nM] Cap: result in words: Tables 8-12; for Ki: Tables 8-12, read-out: (f) Ki (human being) [nM] Cap

T1 sequence (Q8NER1 whole entry): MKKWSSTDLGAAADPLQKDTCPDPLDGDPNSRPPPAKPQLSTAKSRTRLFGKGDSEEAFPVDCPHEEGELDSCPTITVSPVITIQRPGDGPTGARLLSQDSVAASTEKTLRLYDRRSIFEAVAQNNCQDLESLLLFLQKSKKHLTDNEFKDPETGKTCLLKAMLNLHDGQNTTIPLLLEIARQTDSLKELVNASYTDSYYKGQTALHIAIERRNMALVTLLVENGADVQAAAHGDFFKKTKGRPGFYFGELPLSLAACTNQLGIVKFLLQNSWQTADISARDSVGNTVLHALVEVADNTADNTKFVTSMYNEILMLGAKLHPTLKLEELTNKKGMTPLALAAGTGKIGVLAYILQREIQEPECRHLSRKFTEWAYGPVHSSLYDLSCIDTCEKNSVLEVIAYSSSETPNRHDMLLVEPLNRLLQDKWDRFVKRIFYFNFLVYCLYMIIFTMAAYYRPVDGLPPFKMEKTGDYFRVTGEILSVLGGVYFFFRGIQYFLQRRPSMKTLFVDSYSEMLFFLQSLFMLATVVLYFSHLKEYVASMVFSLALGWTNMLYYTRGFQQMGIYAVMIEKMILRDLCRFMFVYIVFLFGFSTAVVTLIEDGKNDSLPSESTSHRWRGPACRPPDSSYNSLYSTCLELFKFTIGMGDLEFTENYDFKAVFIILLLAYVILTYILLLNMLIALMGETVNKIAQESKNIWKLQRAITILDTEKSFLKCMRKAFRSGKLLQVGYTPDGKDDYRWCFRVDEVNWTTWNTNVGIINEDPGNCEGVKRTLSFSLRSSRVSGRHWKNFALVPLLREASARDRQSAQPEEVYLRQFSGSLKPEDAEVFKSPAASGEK

Compound: CC(C(=O)NCc1cc(C(C)(C)C)nn1-c1cccc(C(F)(F)F)c1)c1ccc(CO)c(F)c1 (stereo not drawn) [Example A47, N-[[5-tert-Butyl-2-[3-(trifluoromethyl)phenyl]-2H-pyrazol-3-yl]-methyl]-2-[3-fluoro-4-(hydroxymethyl)-phenyl]-propionamide]
(f) Ki (human being) [nM] Cap: result in words: AG

Compound: CC(C(=O)NCc1cc(C(F)(F)F)nn1-c1cccc(C(F)(F)F)c1)c1ccc(CO)c(F)c1 (stereo not drawn) [Example A48, 2-[3-Fluoro-4-(hydroxymethyl)-phenyl]-N-[[5-(trifluoromethyl)-2-[3-(trifluoromethyl)phenyl]-2H-pyrazol-3-yl]-methyl]-propionamide]
(f) Ki (human being) [nM] Cap: result in words: AG

Compound: COc1cc(C(C)C(=O)NCc2cc(C(C)(C)C)nn2-c2cccc(Cl)c2)ccc1CO (stereo not drawn) [Example A49, N-[[5-tert-Butyl-2-(3-chlorophenyl)-2H-pyrazol-3-yl]-methyl]-2-[4-(hydroxymethyl)-3-methoxy-phenyl]-propionamide]
(f) Ki (human being) [nM] Cap: result in words: AG

Compound: CC(C(=O)NCc1cc(C(F)(F)F)nn1-c1cccc(Cl)c1)c1cc(F)c(CO)c(F)c1 (stereo not drawn) [Example A52, N-[[2-(3-Chlorophenyl)-5-(trifluoromethyl)-2H-pyrazol-3-yl]-methyl]-2-[3,5-difluoro-4-(hydroxymethyl)-phenyl]-propionamide]
Ki: 40 nM

Compound: CC(O)c1ccc(C(C)C(=O)NCc2cc(C(C)(C)C)nn2-c2cccc(Cl)c2)cc1F (stereo not drawn) [Example A98, N-[[5-tert-Butyl-2-(3-chlorophenyl)-2H-pyrazol-3-yl]-methyl]-2-[3-fluoro-4-(1-hydroxy-ethyl)-phenyl]-propionamide]
(f) Ki (human being) [nM] Cap: result in words: AG

Compound: CC(C(=O)NCc1cc(C(C)(C)C)nn1-c1cccc(Cl)c1)c1ccc(CCO)c(F)c1 (stereo not drawn) [Example A139, N-[[5-tert-Butyl-2-(3-chlorophenyl)-2H-pyrazol-3-yl]-methyl]-2-[3-fluoro-4-(2-hydroxy-ethyl)-phenyl]-propionamide]
(f) Ki (human being) [nM] Cap: result in words: AG

Compound: CC(C)(C)c1cc(CNC(=O)Nc2ccc(CCO)c(F)c2)n(-c2cccc(Cl)c2)n1 [Example A140, 1-[[5-tert-Butyl-2-(3-chlorophenyl)-2H-pyrazol-3-yl]-methyl]-3-[3-fluoro-4-(2-hydroxy-ethyl)-phenyl]-urea]
(f) Ki (human being) [nM] Cap: result in words: AG

Compound: CC(C(=O)NCc1cc(C(C)(C)C)nn1-c1cccc(Cl)c1)c1ccc(C(O)CO)c(F)c1 (stereo not drawn) [Example A145, N-[[5-tert-Butyl-2-(3-chlorophenyl)-2H-pyrazol-3-yl]-methyl]-2-[4-(1,2-dihydroxy-ethyl)-3-fluoro-phenyl]-propionamide]
(f) Ki (human being) [nM] Cap: result in words: AG

Compound: CC(C(=O)NCc1cc(C(C)(C)C)nn1-c1cccc(Cl)c1)c1ccc(C(O)CO)cc1 (stereo not drawn) [Example A147, N-[[5-tert-Butyl-2-(3-chlorophenyl)-2H-pyrazol-3-yl]-methyl]-2-[4-(1,2-dihydroxy-ethyl)-phenyl]-propionamide]
(f) Ki (human being) [nM] Cap: result in words: AG

Compound: CC(C(=O)NCc1cc(C(C)(C)C)nn1-c1cccc(Cl)c1)c1ccc(CNS(C)(=O)=O)cc1 (stereo not drawn) [Example B6, N-[[5-tert-Butyl-2-(3-chlorophenyl)-2H-pyrazol-3-yl]-methyl]-2-[4-(methanesulfonamido-methyl)-phenyl]-propionamide]
Ki: 7 nM

Compound: COc1cc(NC(=O)NCc2cc(C(C)(C)C)nn2-c2cccc(Cl)c2)ccc1CNS(C)(=O)=O [Example B11, 1-[[5-tert-Butyl-2-(3-chlorophenyl)-2H-pyrazol-3-yl]-methyl]-3-[4-(methanesulfonamido-methyl)-3-methoxy-phenyl]-urea]
Ki: 9 nM

Compound: COc1cc(NC(=O)NCc2cc(C(F)(F)F)nn2-c2cccc(Cl)c2)ccc1CNS(C)(=O)=O [Example B12, 1-[[2-(3-Chlorophenyl)-5-(trifluoromethyl)-2H-pyrazol-3-yl]-methyl]-3-[4-(methanesulfonamido-methyl)-3-methoxy-phenyl]-urea]
Ki: 41 nM

Compound: CC(C(=O)NCc1cc(C(C)(C)C)nn1-c1cccc(Cl)c1)c1ccc(CNS(C)(=O)=O)c(Cl)c1 (stereo not drawn) [Example B13, N-[[5-tert-Butyl-2-(3-chlorophenyl)-2H-pyrazol-3-yl]-methyl]-2-[3-chloro-4-(methanesulfonamido-methyl)-phenyl]-propionamide]
Ki: 1 nM

Compound: CNCc1ccc(NC(=O)NCc2cc(C(F)(F)F)nn2-c2cccc(Cl)c2)cc1 [Example B14, 1-[[2-(3-Chlorophenyl)-5-(trifluoromethyl)-2H-pyrazol-3-yl]-methyl]-3-[4-(methylamino-methyl)-phenyl]-urea]
Ki: 64 nM

Results, then the molecule that gave them:

Ki: 5 nM
Compound: CC(C(=O)NCc1cc(C(F)(F)F)nn1-c1cccc(Cl)c1)c1ccc(CNS(C)(=O)=O)c(F)c1 (stereo not drawn) [Example B1, N-[[2-(3-Chlorophenyl)-5-(trifluoromethyl)-2H-pyrazol-3-yl]-methyl]-2-[3-fluoro-4-(methanesulfonamido-methyl)-phenyl]-propionamide]

Ki: 2.4 nM
Compound: CC(C(=O)NCc1cc(C(F)(F)F)nn1-c1ccc(F)c(Cl)c1)c1ccc(CNS(C)(=O)=O)c(F)c1 (stereo not drawn) [Example B2, N-[[2-(3-Chloro-4-fluoro-phenyl)-5-(trifluoromethyl)-2H-pyrazol-3-yl]-methyl]-2-[3-fluoro-4-(methanesulfonamido-methyl)-phenyl]-propionamide]

Ki: 3 nM
Compound: CC(C(=O)NCc1cc(C(C)(C)C)nn1-c1ccc(F)c(Cl)c1)c1ccc(CNS(C)(=O)=O)c(F)c1 (stereo not drawn) [Example B3, N-[[5-tert-Butyl-2-(3-chloro-4-fluoro-phenyl)-2H-pyrazol-3-yl]-methyl]-2-[3-fluoro-4-(methanesulfonamido-methyl)-phenyl]-propionamide]

Ki: 9 nM
Compound: CC(C(=O)NCc1cc(C(F)(F)F)nn1-c1cccc(Cl)c1)c1ccc(CNS(C)(=O)=O)cc1 (stereo not drawn) [Example B5, N-[[2-(3-Chlorophenyl)-5-(trifluoromethyl)-2H-pyrazol-3-yl]-methyl]-2-[4-(methanesulfonamido-methyl)-phenyl]-propionamide]

Ki: 7 nM
Compound: CC(C(=O)NCc1cc(C(F)(F)F)nn1-c1cccc(F)c1)c1ccc(CNS(C)(=O)=O)c(F)c1 (stereo not drawn) [Example B7, 2-[3-Fluoro-4-(methanesulfonamido-methyl)-phenyl]-N-[[2-(3-fluorophenyl)-5-(trifluoromethyl)-2H-pyrazol-3-yl]-methyl]-propionamide]

Ki: 1 nM
Compound: CC(C(=O)NCc1cc(C(F)(F)F)nn1-c1cccc(C(F)(F)F)c1)c1ccc(CNS(C)(=O)=O)c(F)c1 (stereo not drawn) [Example B8, 2-[3-Fluoro-4-(methanesulfonamido-methyl)-phenyl]-N-[[5-(trifluoromethyl)-2-[3-(trifluoromethyl)phenyl]-2H-pyrazol-3-yl]-methyl]-propionamide]

Ki: 6 nM
Compound: CC(C(=O)NCc1cc(C(C)(C)C)nn1-c1cccc(F)c1)c1ccc(CNS(C)(=O)=O)c(F)c1 (stereo not drawn) [Example B9, N-[[5-tert-Butyl-2-(3-fluorophenyl)-2H-pyrazol-3-yl]-methyl]-2-[3-fluoro-4-(methanesulfonamido-methyl)-phenyl]-propionamide]

Ki: 6 nM
Compound: CC(C(=O)NCc1cc(C(C)(C)C)nn1-c1ccc(F)c(F)c1)c1ccc(CNS(C)(=O)=O)c(F)c1 (stereo not drawn) [Example B10, N-[[5-tert-Butyl-2-(3,4-difluoro-phenyl)-2H-pyrazol-3-yl]-methyl]-2-[3-fluoro-4-(methanesulfonamido-methyl)-phenyl]-propionamide]

Ki: 6 nM
Compound: COc1cccc(-n2nc(C(F)(F)F)cc2CNC(=O)C(C)c2ccc(CNS(C)(=O)=O)c(F)c2)c1 (stereo not drawn) [Example B15, 2-[3-Fluoro-4-(methanesulfonamido-methyl)-phenyl]-N-[[2-(3-methoxyphenyl)-5-(trifluoromethyl)-2H-pyrazol-3-yl]-methyl]-propionamide]

Ki: 2 nM
Compound: CCS(=O)(=O)NCc1ccc(C(C)C(=O)NCc2cc(C(C)(C)C)nn2-c2cccc(Cl)c2)cc1F (stereo not drawn) [Example B16, N-[[5-tert-Butyl-2-(3-chlorophenyl)-2H-pyrazol-3-yl]-methyl]-2-[4-[[(ethylsulfonyl)amino]-methyl]-3-fluoro-phenyl]-propionamide]

Ki: 3 nM
Compound: CCS(=O)(=O)NCc1ccc(C(C)C(=O)NCc2cc(C(F)(F)F)nn2-c2cccc(Cl)c2)cc1F (stereo not drawn) [Example B17, N-[[2-(3-Chlorophenyl)-5-(trifluoromethyl)-2H-pyrazol-3-yl]-methyl]-2-[4-[[(ethylsulfonyl)amino]-methyl]-3-fluoro-phenyl]-propionamide]

Ki: 13 nM
Compound: CC(C(=O)NCc1cc(C(F)(F)F)nn1-c1ccc(Cl)cc1)c1ccc(CNS(C)(=O)=O)c(F)c1 (stereo not drawn) [Example B18, N-[[2-(4-Chlorophenyl)-5-(trifluoromethyl)-2H-pyrazol-3-yl]-methyl]-2-[3-fluoro-4-(methanesulfonamido-methyl)-phenyl]-propionamide]

Ki: 6 nM
Compound: CC(C(=O)NCc1cc(C(F)(F)F)nn1-c1ccc(F)c(F)c1)c1ccc(CNS(C)(=O)=O)c(F)c1 (stereo not drawn) [Example B19, N-[[2-(3,4-Difluoro-phenyl)-5-(trifluoromethyl)-2H-pyrazol-3-yl]-methyl]-2-[3-fluoro-4-(methanesulfonamido-methyl)-phenyl]-propionamide]

Ki: 52 nM
Compound: CC(C(=O)NCc1cc(C(C)(C)C)nn1-c1ccc(Cl)cc1)c1ccc(CNS(C)(=O)=O)c(F)c1 (stereo not drawn) [Example B20, N-[[5-tert-Butyl-2-(4-chlorophenyl)-2H-pyrazol-3-yl]-methyl]-2-[3-fluoro-4-(methanesulfonamido-methyl)-phenyl]-propionamide]

Ki: 30 nM
Compound: CC(C(=O)NCc1cc(C(C)(C)C)nn1-c1ccc(F)cc1)c1ccc(CNS(C)(=O)=O)c(F)c1 (stereo not drawn) [Example B21, N-[[5-tert-Butyl-2-(4-fluorophenyl)-2H-pyrazol-3-yl]-methyl]-2-[3-fluoro-4-(methanesulfonamido-methyl)-phenyl]-propionamide]

Ki: 3 nM
Compound: CC(C(=O)NCc1cc(C(F)(F)F)nn1-c1cccc(Cl)c1)c1ccc(CNS(C)(=O)=O)c(Cl)c1 (stereo not drawn) [Example B22, 2-[3-Chloro-4-(methanesulfonamido-methyl)-phenyl]-N-[[2-(3-chlorophenyl)-5-(trifluoromethyl)-2H-pyrazol-3-yl]-methyl]-propionamide]
